Legend:
[1] = tested on: HL-60(TB); assay: Growth inhibition of human HL-60(TB) cells at 10 uM incubated for 48 hrs by sulforhodamine B assay relative to control; type: functional; conditions: HL-60, 48 h, read-out: GI
[2] = tested on: RPMI-8226; assay: Growth inhibition of human RPMI8226 cells at 10 uM incubated for 48 hrs by sulforhodamine B assay relative to control; type: functional; conditions: RPMI-8226, 48 h, read-out: GI
[3] = tested on: NCI-H23; assay: Growth inhibition of human NCI-H23 cells at 10 uM incubated for 48 hrs by sulforhodamine B assay relative to control; type: functional; conditions: NCI-H23, 48 h, read-out: GI
[4] = tested on: NCI-H322M; assay: Growth inhibition of human NCI-H322M cells at 10 uM incubated for 48 hrs by sulforhodamine B assay relative to control; type: functional; conditions: read-out: GI
[5] = tested on: NCI-H460; assay: Growth inhibition of human NCI-H460 cells at 10 uM incubated for 48 hrs by sulforhodamine B assay relative to control; type: functional; conditions: NCI-H460, 48 h, read-out: GI
[6] = tested on: HCC 2998; assay: Growth inhibition of human HCC2998 cells at 10 uM incubated for 48 hrs by sulforhodamine B assay relative to control; type: functional; conditions: HCC 2998, 48 h, read-out: GI
[7] = tested on: HCT-116; assay: Growth inhibition of human HCT116 cells at 10 uM incubated for 48 hrs by sulforhodamine B assay relative to control; type: functional; conditions: HCT-116, 48 h, read-out: GI
[8] = tested on: KM12; assay: Growth inhibition of human KM12 cells at 10 uM incubated for 48 hrs by sulforhodamine B assay relative to control; type: functional; conditions: KM12, 48 h, read-out: GI
[9] = tested on: SF-268; assay: Growth inhibition of human SF268 cells at 10 uM incubated for 48 hrs by sulforhodamine B assay relative to control; type: functional; conditions: SF-268, 48 h, read-out: GI
[10] = tested on: SF-295; assay: Growth inhibition of human SF295 cells at 10 uM incubated for 48 hrs by sulforhodamine B assay relative to control; type: functional; conditions: SF-295, 48 h, read-out: GI
[11] = tested on: SNB-19; assay: Growth inhibition of human SNB19 cells at 10 uM incubated for 48 hrs by sulforhodamine B assay relative to control; type: functional; conditions: SNB-19, 48 h, read-out: GI
[12] = tested on: SNB-75; assay: Growth inhibition of human SNB75 cells at 10 uM incubated for 48 hrs by sulforhodamine B assay relative to control; type: functional; conditions: SNB-75, 48 h, read-out: GI
[13] = tested on: U-251; assay: Growth inhibition of human U251 cells at 10 uM incubated for 48 hrs by sulforhodamine B assay relative to control; type: functional; conditions: U-251, 48 h, read-out: GI
[14] = tested on: M14; assay: Growth inhibition of human M14 cells at 10 uM incubated for 48 hrs by sulforhodamine B assay relative to control; type: functional; conditions: M14, 48 h, read-out: GI
[15] = tested on: UACC-257; assay: Growth inhibition of human UACC257 cells at 10 uM incubated for 48 hrs by sulforhodamine B assay relative to control; type: functional; conditions: UACC-257, 48 h, read-out: GI
[16] = tested on: UACC-62; assay: Growth inhibition of human UACC62 cells at 10 uM incubated for 48 hrs by sulforhodamine B assay relative to control; type: functional; conditions: UACC-62, 48 h, read-out: GI
[17] = tested on: IGROV-1; assay: Growth inhibition of human IGROV1 cells at 10 uM incubated for 48 hrs by sulforhodamine B assay relative to control; type: functional; conditions: IGROV-1, 48 h, read-out: GI
[18] = tested on: OVCAR-3; assay: Growth inhibition of human OVCAR3 cells at 10 uM incubated for 48 hrs by sulforhodamine B assay relative to control; type: functional; conditions: OVCAR-3, 48 h, read-out: GI
[19] = tested on: OVCAR-4; assay: Growth inhibition of human OVCAR4 cells at 10 uM incubated for 48 hrs by sulforhodamine B assay relative to control; type: functional; conditions: OVCAR-4, 48 h, read-out: GI
[20] = tested on: NCI/ADR-RES; assay: Growth inhibition of human NCI/ADR-RES cells at 10 uM incubated for 48 hrs by sulforhodamine B assay relative to control; type: functional; conditions: read-out: GI
[21] = tested on: SK-OV-3; assay: Growth inhibition of human SKOV3 cells at 10 uM incubated for 48 hrs by sulforhodamine B assay relative to control; type: functional; conditions: SK-OV-3, 48 h, read-out: GI
[22] = tested on: 786-0; assay: Growth inhibition of human 786-0 cells at 10 uM incubated for 48 hrs by sulforhodamine B assay relative to control; type: functional; conditions: 786-0, 48 h, read-out: GI
[23] = tested on: ACHN; assay: Growth inhibition of human ACHN cells at 10 uM incubated for 48 hrs by sulforhodamine B assay relative to control; type: functional; conditions: read-out: GI
[24] = tested on: SN12C; assay: Growth inhibition of human SN12C cells at 10 uM incubated for 48 hrs by sulforhodamine B assay relative to control; type: functional; conditions: read-out: GI
[25] = tested on: UO-31; assay: Growth inhibition of human UO31 cells at 10 uM incubated for 48 hrs by sulforhodamine B assay relative to control; type: functional; conditions: UO-31, 48 h, read-out: GI
[26] = tested on: PC-3; assay: Growth inhibition of human PC3 cells at 10 uM incubated for 48 hrs by sulforhodamine B assay relative to control; type: functional; conditions: PC-3, 48 h, read-out: GI
[27] = tested on: DU-145; assay: Growth inhibition of human DU145 cells at 10 uM incubated for 48 hrs by sulforhodamine B assay relative to control; type: functional; conditions: DU-145, 48 h, read-out: GI
[28] = tested on: MCF7; assay: Growth inhibition of human MCF7 cells at 10 uM incubated for 48 hrs by sulforhodamine B assay relative to control; type: functional; conditions: MCF7, 48 h, read-out: GI
[29] = tested on: MDA-MB-231; assay: Growth inhibition of human MDA-MB-231/ATCC cells at 10 uM incubated for 48 hrs by sulforhodamine B assay relative to control; type: functional; conditions: MDA-MB-231, 48 h, read-out: GI
[30] = tested on: Hs-578T; assay: Growth inhibition of human Hs 578T cells at 10 uM incubated for 48 hrs by sulforhodamine B assay relative to control; type: functional; conditions: read-out: GI
[31] = tested on: T47D; assay: Growth inhibition of human T47D cells at 10 uM incubated for 48 hrs by sulforhodamine B assay relative to control; type: functional; conditions: read-out: GI
[32] = tested on: MDA-MB-468; assay: Growth inhibition of human MDA-MB-468 cells at 10 uM incubated for 48 hrs by sulforhodamine B assay relative to control; type: functional; conditions: MDA-MB-468, 48 h, read-out: GI
[33] = tested on: PANC-1; assay: Antiproliferative activity against human PANC1 cells after 48 hrs by propidium iodide staining-based fluorometric analysis; type: functional, cell-based; conditions: PANC-1, 48 h
[34] = tested on: MIA PaCa-2; assay: Antiproliferative activity against human MIAPaCa2 cells after 48 hrs by propidium iodide staining-based fluorometric analysis; type: functional, cell-based; conditions: MIA PaCa-2, 48 h
[35] = tested on: SR; assay: Growth inhibition of human SR cells at 10 uM incubated for 48 hrs by sulforhodamine B assay relative to control; type: functional; conditions: read-out: GI
[36] = tested on: SK-MEL-2; assay: Growth inhibition of human SK-MEL-2 cells at 10 uM incubated for 48 hrs by sulforhodamine B assay relative to control; type: functional; conditions: SK-MEL-2, 48 h, read-out: GI

SMILES	inhibition of growth at 10 µM [1]	inhibition of growth at 10 µM [2]	inhibition of growth at 10 µM [3]	inhibition of growth at 10 µM [4]	inhibition of growth at 10 µM [5]	inhibition of growth at 10 µM [7]	inhibition of growth at 10 µM [8]	inhibition of growth at 10 µM [9]	inhibition of growth at 10 µM [11]	inhibition of growth at 10 µM [12]	inhibition of growth at 10 µM [13]	inhibition of growth at 10 µM [14]	inhibition of growth at 10 µM [15]	inhibition of growth at 10 µM [16]	inhibition of growth at 10 µM [19]	inhibition of growth at 10 µM [20]	inhibition of growth at 10 µM [23]	inhibition of growth at 10 µM [24]	inhibition of growth at 10 µM [25]	inhibition of growth at 10 µM [26]	other results
Clc1ccc(-c2cn3nc(-c4ccccc4)nc3s2)cc1	15%	10%	33%	20%	37%	41%	30%	20%	57%	36%	25%	15%	15%	18%	60%	34%	49%	22%	40%	31%	inhibition of growth at 10 µM [6]: 10%; inhibition of growth at 10 µM [10]: 21%; inhibition of growth at 10 µM [17]: 55%; inhibition of growth at 10 µM [18]: 24%; inhibition of growth at 10 µM [21]: 64%; inhibition of growth at 10 µM [22]: 53%; inhibition of growth at 10 µM [27]: 14%; inhibition of growth at 10 µM [28]: 35%; inhibition of growth at 10 µM [29]: 57%; inhibition of growth at 10 µM [30]: 40%; inhibition of growth at 10 µM [31]: 74%; inhibition of growth at 10 µM [32]: 57%; IC50 [33]: 5.2 µM; IC50 [34]: 6.5 µM
c1ccc(-c2nc3sc(-c4ccccc4)cn3n2)cc1	21%	14%	16%	11%	6%	11%	18%	7%	11%	15%	6%	13%	13%	33%	23%	14%	14%	20%	53%	37%	inhibition of growth at 10 µM [35]: 9%; inhibition of growth at 10 µM [36]: 5%; inhibition of growth at 10 µM [17]: 43%; inhibition of growth at 10 µM [18]: 16%; inhibition of growth at 10 µM [21]: 5%; inhibition of growth at 10 µM [27]: 15%; inhibition of growth at 10 µM [28]: 61%; inhibition of growth at 10 µM [29]: 35%; inhibition of growth at 10 µM [30]: 9%; inhibition of growth at 10 µM [31]: 63%; inhibition of growth at 10 µM [32]: 14%; IC50 [33]: 7.2 µM; IC50 [34]: 9.2 µM
COc1cc(-c2nc3sc(-c4ccccc4)cn3n2)cc(OC)c1OC	37%	42%	17%	7%	18%	40%	14%	9%	10%	24%	32%	25%	10%	31%	17%	39%	15%	19%	43%	53%	inhibition of growth at 10 µM [35]: 65%; inhibition of growth at 10 µM [10]: 16%; inhibition of growth at 10 µM [36]: 20%; inhibition of growth at 10 µM [22]: 14%; inhibition of growth at 10 µM [27]: 9%; inhibition of growth at 10 µM [28]: 23%; inhibition of growth at 10 µM [29]: 41%; inhibition of growth at 10 µM [30]: 26%; inhibition of growth at 10 µM [31]: 55%; inhibition of growth at 10 µM [32]: 35%; IC50 [33]: 4.9 µM; IC50 [34]: 4.7 µM
